Assay results published in patent US4143166A, “7[(2-Hydroxyamino-2-disubstituted phenyl-acetamido)-]3-heterocyclicthio-3-cephem-4-carboxylic acids” (Fujisawa Pharmaceutical Co., Ltd., priority 1975, dated 1979).
Values after ≈ are worked out from the molar mass of the structure shown. Read-outs that look alike come from different tables or passages of the source.

Key:
Format in all cases: cell-based
[1] = tested on: Sh. flexneri2a; experiment: In vitro antibacterial activity, two-fold agar-plate dilution method (MIC), Sh. flexneri 2a; settings: Shigella flexneri, HI-agar, 37° C., 20 hours, 10^8 viable cells per ml, read-out: minimal inhibitory concentration (MIC)
Experimental: (§1) In vitro antibacterial activity was determined by the two-fold agar-plate dilution method as described below.
(§2) One loopful of an overnight culture of each test strain in Trypticase-soy broth (10^8 viable cells per ml) was streaked on heart infusion agar (HI-agar) containing graded concentrations of antibiotics, and the minimal inhibitory concentration (MIC) was expressed in terms of μg/ml after incubation at 37° C. for 20 hours.

[2] = tested on: Sal. Enteritidis; experiment: In vitro antibacterial activity, two-fold agar-plate dilution method (MIC), Sal. Enteritidis; settings: Salmonella enterica, read-out: minimal inhibitory concentration (MIC)
Experimental: as §1, §2

[3] = tested on: Ps. aeruginosa721; experiment: In vitro antibacterial activity, two-fold agar-plate dilution method (MIC), Ps. aeruginosa 721; settings: Pseudomonas aeruginosa, read-out: minimal inhibitory concentration (MIC)
Experimental: as §1, §2

[4] = tested on: E coli 341; experiment: In vitro antibacterial activity, two-fold agar-plate dilution method (MIC), E coli 341; settings: read-out: minimal inhibitory concentration (MIC)
Experimental: as §1, §2

[5] = tested on: Kl. pneumoniae 417; experiment: In vitro antibacterial activity, two-fold agar-plate dilution method (MIC), Kl. pneumoniae 417; settings: Klebsiella pneumoniae, HI-agar, 37° C., 20 hours, 10^8 viable cells per ml, read-out: minimal inhibitory concentration (MIC)
Experimental: as §1, §2

[6] = tested on: Pr. mirabilis 525; experiment: In vitro antibacterial activity, two-fold agar-plate dilution method (MIC), Pr. mirabilis 525; settings: read-out: minimal inhibitory concentration (MIC)
Experimental: as §1, §2

[7] = Ps. aeruginosa721, HI-agar, 37° C., 20 hours, 10^8 viable cells per ml
[8] = E coli 341, HI-agar, 37° C., 20 hours, 10^8 viable cells per ml
[9] = Proteus mirabilis, Pr. mirabilis 525, HI-agar, 37° C., 20 hours, 10^8 viable cells per ml
[10] = Sal. Enteritidis, HI-agar, 37° C., 20 hours, 10^8 viable cells per ml

Structure (SMILES) | MIC [1] | MIC ([2]; ENTERITIDIS, 20 h) | MIC [3, 7] | MIC [4, 8] | MIC [5] | MIC [6, 9] | MIC [2, 10] | MIC ([3]; 20 h) | MIC ([6]; Proteus mirabilis, 525, 20 h) | MIC ([4]; 20 h)
Cn1nnnc1SCC1=C(C(=O)O)N2C(=O)C(NC(=O)/C(=N\O)c3ccc(O)cc3)C2SC1 (stereo not drawn) [Test Compound (1), Sodium 7-[2-hydroxyimino-2-(4-hydroxyphenyl)acetamido]-3-(1-methyl-1H-tetrazol-5-yl)thiomethyl-3-cephem-4-carboxylate (syn isomer)] | 0.78 µg/mL | 3.13 µg/mL | 25 µg/mL | 1.56 µg/mL | 3.13 µg/mL | 1.56 µg/mL | – | – | – | –
Cn1nnnc1SCC1=C(C(=O)O)N2C(=O)C(NC(=O)/C(=N\O)c3cccc(O)c3)C2SC1 (stereo not drawn) [Test Compound (2), Sodium 7-(2-hydroxyimino-2-(3-hydroxyphenyl)acetamido]-3-(1-methyl-1H-tetrazol-5-yl)thiomethyl-3-cephem-4-carboxylate (syn isomer)] | 0.78 µg/mL | – | 100 µg/mL | 0.78 µg/mL | 0.78 µg/mL | 1.56 µg/mL | 1.56 µg/mL | – | – | –
CC(=O)OCC1=C(C(=O)O)N2C(=O)C(NC(=O)/C(=N\O)c3ccc(O)c(Cl)c3)C2SC1 (stereo not drawn) [Test Compound (3), Sodium 7-[2-hydroxyimino-2-(3-chloro-4-hydroxyphenyl)acetamido]cephalosporanate (syn isomer)] | 3.13 µg/mL | – | – | 6.25 µg/mL | 3.13 µg/mL | 0.39 µg/mL | 0.78 µg/mL | 3.13 µg/mL | – | –
O=C(O)C1=C(CSc2nncs2)CSC2C(NC(=O)/C(=N\O)c3cccc(O)c3)C(=O)N12 (stereo not drawn) [Test Compound (4), 7-[2-Hydroxyimino-2-[3-hydroxyphenyl)acetamido]-3-(1,3,4-thiadiazol-2-yl)thiomethyl-3-cephem-4-carboxylic acid (syn isomer)] | 0.39 µg/mL (≈ 0.79 µM) | – | 12.5 µg/mL (≈ 25.3 µM) | 0.78 µg/mL (≈ 1.58 µM) | 3.13 µg/mL (≈ 6.34 µM) | 1.56 µg/mL (≈ 3.16 µM) | 0.39 µg/mL (≈ 0.79 µM) | – | – | –
Cc1nnc(SCC2=C(C(=O)O)N3C(=O)C(NC(=O)/C(=N\O)c4cccc(O)c4)C3SC2)s1 (stereo not drawn) [Test Compound (5), 7-[2-Hydroxyimino-2-(3-hydroxyphenyl)acetamido]-3-(5-methyl-1,3,4-thiadiazol-2-yl)thiomethyl-3-cephem-4-carboxylic acid (syn isomer)] | 0.39 µg/mL (≈ 0.768 µM) | – | 6.25 µg/mL (≈ 12.3 µM) | 0.78 µg/mL (≈ 1.54 µM) | 0.78 µg/mL (≈ 1.54 µM) | 3.13 µg/mL (≈ 6.17 µM) | 0.2 µg/mL (≈ 0.394 µM) | – | – | –
Cn1nnnc1SCC1=C(C(=O)O)N2C(=O)C(NC(=O)/C(=N\OC(=O)c3ccccc3)c3cccc(O)c3)C2SC1 (stereo not drawn) [Test Compound (6), 7-[2-Benzoyloxyimino-2-(3-hydroxyphenyl)acetamido]-3-(1-methyl-1H-tetrazol-5-yl)thiomethyl-3-cephem-4-carboxylic acid (syn isomer)] | 0.78 µg/mL (≈ 1.31 µM) | – | 12.5 µg/mL (≈ 21 µM) | 1.56 µg/mL (≈ 2.62 µM) | 0.39 µg/mL (≈ 0.655 µM) | 0.78 µg/mL (≈ 1.31 µM) | 0.39 µg/mL (≈ 0.655 µM) | – | – | –
CCOC(=O)O/N=C(\C(=O)NC1C(=O)N2C(C(=O)O)=C(CSc3nnnn3C)CSC12)c1cccc(O)c1 (stereo not drawn) [Test Compound (7), 7-[2-Ethoxycarbonyloxyimino-2-(3-hydroxyphenyl)acetamido]-3-(1-methyl-1H-tetrazol-5-yl)thiomethyl-3-cephem-4-carboxylic acid (syn isomer)] | 1.56 µg/mL (≈ 2.77 µM) | – | 25 µg/mL (≈ 44.4 µM) | 3.13 µg/mL (≈ 5.55 µM) | 0.39 µg/mL (≈ 0.692 µM) | 0.39 µg/mL (≈ 0.692 µM) | 0.2 µg/mL (≈ 0.355 µM) | – | – | –
CC(=O)OCC1=C(C(=O)O)N2C(=O)C(NC(=O)/C(=N\O)c3cccc(O)c3)C2SC1 (stereo not drawn) [Test Compound (8), 7-[2-Hydroxyimino-2-(3-hydroxphenyl)acetamido]cephalosporanic acid (syn isomer)] | 0.78 µg/mL (≈ 1.79 µM) | 1.56 µg/mL (≈ 3.58 µM) | 25 µg/mL (≈ 57.4 µM) | 0.78 µg/mL (≈ 1.79 µM) | 1.56 µg/mL (≈ 3.58 µM) | – | – | – | 1.56 µg/mL (≈ 3.58 µM) | –
NC(=O)OCC1=C(C(=O)O)N2C(=O)C(NC(=O)/C(=N\O)c3cccc(O)c3)C2SC1 (stereo not drawn) [Test Compound (9), Sodium 7-[2-hydroxyimino-2-(3-hydroxyphenyl)acetamido]-3-carbamoyloxymethyl-3-cephem-4-carboxylate (syn isomer)] | 0.78 µg/mL | – | 6.25 µg/mL | – | 0.2 µg/mL | 0.78 µg/mL | 0.78 µg/mL | – | – | –
Cn1nnnc1SCC1=C(C(=O)O)N2C(=O)C(NC(=O)/C(=N\O)c3ccc(O)c([N+](=O)[O-])c3)C2SC1 (stereo not drawn) [Test Compound (10), 7-[2-Hydroxyimino-2-(3-nitro-4-hydroxyphenyl)acetamido]-3-(1-methyl-1H-tetrazol-5-yl)thiomethyl-3-cephem-4-carboxylic acid (syn isomer)] | 1.56 µg/mL (≈ 2.91 µM) | – | – | 3.13 µg/mL (≈ 5.83 µM) | 0.39 µg/mL (≈ 0.727 µM) | 0.2 µg/mL (≈ 0.373 µM) | 0.2 µg/mL (≈ 0.373 µM) | – | – | –
Cc1nnc(SCC2=C(C(=O)O)N3C(=O)C(NC(=O)/C(=N\O)c4ccccc4)C3SC2)s1 (stereo not drawn) [Test Compound (A), 7-(2-Hydroxyimino-2-phenylacetamido)-3-(5-methyl-1,3,4-thiadiazol-2-yl)thiomethyl-3-cephem-4-carboxylic acid (syn isomer), reference compound] | 6.25 µg/mL (≈ 12.7 µM) | 6.25 µg/mL (≈ 12.7 µM) | 50 µg/mL (≈ 102 µM) | – | 12.5 µg/mL (≈ 25.4 µM) | 25 µg/mL (≈ 50.9 µM) | – | – | – | 12.5 µg/mL (≈ 25.4 µM)
